Assay results reported in patent US12077503B2, “Substituted cyclic amides and their use as herbicides” (FMC CORPORATION, priority 2015, dated 2024).

Assays:
Assay type in all cases: in vivo
[1] = system: redroot pigweed (Amaranthus retroflexus); assay: Test G Post-Emergence Protocol; conditions: Amaranthus retroflexus, post-emergence, 312 h; for pest or weed control at 15.625 g/ha: 15.625 g ai/ha, evaluated after 13 days (100=total damage to plant; 0=no damage to plant), read-out: Pigweed, Redroot damage rating; for pest or weed control at 62.5 g/ha: 62.5 g ai/ha, read-out: Pigweed, Redroot damage rating (100=total damage to plant; 0=no damage to plant); for pest or weed control at 62.5 g/ha / pest or weed control at 250 g/ha: evaluated after 13 days; for pest or weed control at 250 g/ha: 250 g ai/ha, read-out: damage to plant, Pigweed, Redroot (100=total damage to plant; 0=no damage to plant)
How it was run: (§1)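 Sow in soil; grow 8 d (24/16 °C, 14 h light, 65% humidity); spray 15.625/62.5/250 g/ha in acetone:water 50:50 + 0.5% Tween 20; grow on, water twice daily; score damage 0–100 at 13 d.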

[2] = system: giant foxtail (Setaria faberi); assay: Test G Post-Emergence Protocol; conditions: Setaria faberi, post-emergence, 312 h; for pest or weed control at 15.625 g/ha: 15.625 g ai/ha, evaluated after 13 days (100=total damage to plant; 0=no damage to plant), read-out: Foxtail, Giant damage rating; for pest or weed control at 62.5 g/ha: 62.5 g ai/ha, read-out: Foxtail, Giant damage rating (100=total damage to plant; 0=no damage to plant); for pest or weed control at 62.5 g/ha / pest or weed control at 250 g/ha: evaluated after 13 days; for pest or weed control at 250 g/ha: 250 g ai/ha, read-out: damage to plant, Foxtail, Giant (100=total damage to plant; 0=no damage to plant)
How it was run: as §1

[3] = system: ivy-leaved morning glory (Ipomoea hederacea); assay: Test G Post-Emergence Protocol; conditions: Ipomoea, post-emergence, 312 h; for pest or weed control at 15.625 g/ha: 15.625 g ai/ha, evaluated after 13 days (100=total damage to plant; 0=no damage to plant), read-out: Morningglory, Ivy-leaved damage rating; for pest or weed control at 62.5 g/ha: 62.5 g ai/ha, read-out: Morningglory, Ivy-leaved damage rating (100=total damage to plant; 0=no damage to plant); for pest or weed control at 62.5 g/ha / pest or weed control at 250 g/ha: evaluated after 13 days; for pest or weed control at 250 g/ha: 250 g ai/ha, read-out: damage to plant, Morningglory, Ivy-leaved (100=total damage to plant; 0=no damage to plant)
How it was run: as §1

[4] = system: barnyardgrass (Echinochloa crus-galli); assay: Test G Post-Emergence Protocol; conditions: Echinochloa crus-galli, post-emergence, 312 h; for pest or weed control at 15.625 g/ha: 15.625 g ai/ha, evaluated after 13 days (100=total damage to plant; 0=no damage to plant), read-out: Barnyardgrass damage rating; for pest or weed control at 62.5 g/ha: 62.5 g ai/ha, read-out: Barnyardgrass damage rating (100=total damage to plant; 0=no damage to plant); for pest or weed control at 62.5 g/ha / pest or weed control at 250 g/ha: evaluated after 13 days; for pest or weed control at 250 g/ha: 250 g ai/ha, read-out: damage to plant, Barnyardgrass (100=total damage to plant; 0=no damage to plant)
How it was run: as §1

[5] = system: velvetleaf (Abutilon theophrasti); assay: Test G Post-Emergence Protocol; conditions: Abutilon theophrasti, post-emergence, 312 h; for pest or weed control at 15.625 g/ha: 15.625 g ai/ha, evaluated after 13 days (100=total damage to plant; 0=no damage to plant), read-out: Velvetleaf damage rating; for pest or weed control at 62.5 g/ha: 62.5 g ai/ha, read-out: Velvetleaf damage rating (100=total damage to plant; 0=no damage to plant); for pest or weed control at 62.5 g/ha / pest or weed control at 250 g/ha: evaluated after 13 days; for pest or weed control at 250 g/ha: 250 g ai/ha, read-out: damage to plant, Velvetleaf (100=total damage to plant; 0=no damage to plant)
How it was run: as §1

corn (Zea mays) [6] = assay: Test G Post-Emergence Protocol; conditions: Zea mays, post-emergence, 312 h; for plant injury at 15.625 g/ha: 15.625 g ai/ha, evaluated after 13 days (100=total damage to plant; 0=no damage to plant), read-out: Corn damage rating; for plant injury at 62.5 g/ha: 62.5 g ai/ha, read-out: Corn damage rating (100=total damage to plant; 0=no damage to plant); for plant injury at 62.5 g/ha / plant injury at 250 g/ha: evaluated after 13 days; for plant injury at 250 g/ha: 250 g ai/ha, read-out: damage to plant, Corn (100=total damage to plant; 0=no damage to plant)
How it was run: as §1

[7] = system: redroot pigweed (Amaranthus retroflexus); assay: Test G Pre-Emergence Protocol; conditions: Amaranthus retroflexus, pre-emergence, 312 h, evaluated after 13 days; for pest or weed control at 15.625 g/ha: 15.625 g ai/ha; for pest or weed control at 15.625 g/ha / pest or weed control at 250 g/ha: read-out: Pigweed, Redroot damage rating (100=total damage to plant; 0=no damage to plant); for pest or weed control at 62.5 g/ha: 62.5 g ai/ha, 100=total damage to plant, 0=no damage to plant, read-out: plant damage rating, Pigweed, Redroot; for pest or weed control at 250 g/ha: 250 g ai/ha
How it was run: (§2)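 Scores are visual damage ratings from 0 (no damage) to 100 (total plant kill), taken 13 days after treatment. Compound was sprayed one day post-sowing at 15.625, 62.5 or 250 g/ha in 50:50 acetone/water with 0.5% Tween 20.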

[8] = system: giant foxtail (Setaria faberi); assay: Test G Pre-Emergence Protocol; conditions: Setaria faberi, pre-emergence, 312 h, evaluated after 13 days; for pest or weed control at 15.625 g/ha: 15.625 g ai/ha; for pest or weed control at 15.625 g/ha / pest or weed control at 250 g/ha: read-out: Foxtail, Giant damage rating (100=total damage to plant; 0=no damage to plant); for pest or weed control at 62.5 g/ha: 62.5 g ai/ha, 100=total damage to plant, 0=no damage to plant, read-out: plant damage rating, Foxtail, Giant; for pest or weed control at 250 g/ha: 250 g ai/ha
How it was run: as §2

[9] = system: ivy-leaved morning glory (Ipomoea hederacea); assay: Test G Pre-Emergence Protocol; conditions: Ipomoea, pre-emergence, 312 h, evaluated after 13 days; for pest or weed control at 15.625 g/ha: 15.625 g ai/ha, read-out: Morning-glory, Ivy-leaved damage rating (100=total damage to plant; 0=no damage to plant); for pest or weed control at 62.5 g/ha: 62.5 g ai/ha, 100=total damage to plant, 0=no damage to plant, read-out: plant damage rating, Morningglory, Ivy-leaved; for pest or weed control at 250 g/ha: 250 g ai/ha, read-out: Morningglory, Ivy-leaved damage rating (100=total damage to plant; 0=no damage to plant)
How it was run: as §2

[10] = system: barnyardgrass (Echinochloa crus-galli); assay: Test G Pre-Emergence Protocol; conditions: Echinochloa crus-galli, pre-emergence, 312 h, evaluated after 13 days; for pest or weed control at 15.625 g/ha: 15.625 g ai/ha, read-out: Barnyard grass damage rating (100=total damage to plant; 0=no damage to plant); for pest or weed control at 62.5 g/ha: 62.5 g ai/ha, 100=total damage to plant, 0=no damage to plant, read-out: plant damage rating, Barnyardgrass; for pest or weed control at 250 g/ha: 250 g ai/ha, read-out: Barnyardgrass damage rating (100=total damage to plant; 0=no damage to plant)
How it was run: as §2

[11] = system: velvetleaf (Abutilon theophrasti); assay: Test G Pre-Emergence Protocol; conditions: Abutilon theophrasti, pre-emergence, 312 h, evaluated after 13 days; for pest or weed control at 15.625 g/ha: 15.625 g ai/ha; for pest or weed control at 15.625 g/ha / pest or weed control at 250 g/ha: read-out: Velvetleaf damage rating (100=total damage to plant; 0=no damage to plant); for pest or weed control at 62.5 g/ha: 62.5 g ai/ha, 100=total damage to plant, 0=no damage to plant, read-out: plant damage rating, Velvetleaf; for pest or weed control at 250 g/ha: 250 g ai/ha
How it was run: as §2

corn (Zea mays) [12] = assay: Test G Pre-Emergence Protocol; conditions: Zea mays, pre-emergence, 312 h, evaluated after 13 days; for plant injury at 15.625 g/ha: 15.625 g ai/ha; for plant injury at 15.625 g/ha / plant injury at 250 g/ha: read-out: Corn damage rating (100=total damage to plant; 0=no damage to plant); for plant injury at 62.5 g/ha: 62.5 g ai/ha, 100=total damage to plant, 0=no damage to plant, read-out: plant damage rating, Corn; for plant injury at 250 g/ha: 250 g ai/ha
How it was run: as §2

`CN1C[C@@H](c2ccc(C(F)(F)F)cc2)[C@H](C(=O)Nc2cncc(Cl)n2)C1=O` (racemic) [Compound 1574] was tested, and the pest or weed control at 15.625 g/ha [1] was 0%, the pest or weed control at 62.5 g/ha [1] was 0% and the pest or weed control at 250 g/ha [1] was 0%. For the same molecule, the pest or weed control at 15.625 g/ha [2] was 0%, the pest or weed control at 62.5 g/ha [2] was 0% and the pest or weed control at 250 g/ha [2] was 60%. The pest or weed control at 15.625 g/ha [3] was 0%, the pest or weed control at 62.5 g/ha [3] was 0% and the pest or weed control at 250 g/ha [3] was 40%. It also gave a pest or weed control at 15.625 g/ha [4] of 0%, a pest or weed control at 62.5 g/ha [4] of 0% and a pest or weed control at 250 g/ha [4] of 40%. For the same molecule, the pest or weed control at 15.625 g/ha [5] was 0%, the pest or weed control at 62.5 g/ha [5] was 0% and the pest or weed control at 250 g/ha [5] was 0%. For the same molecule, the plant injury at 15.625 g/ha (corn (Zea mays) [6]) was 0%, the plant injury at 62.5 g/ha (corn (Zea mays) [6]) was 0% and the plant injury at 250 g/ha (corn (Zea mays) [6]) was 0%. The pest or weed control at 15.625 g/ha [7] was 0%, the pest or weed control at 62.5 g/ha [7] was 0% and the pest or weed control at 250 g/ha [7] was 30%. The pest or weed control at 15.625 g/ha [8] was 0%, the pest or weed control at 62.5 g/ha [8] was 0% and the pest or weed control at 250 g/ha [8] was 70%. It also gave a pest or weed control at 15.625 g/ha [9] of 0%, a pest or weed control at 62.5 g/ha [9] of 0% and a pest or weed control at 250 g/ha [9] of 0%. For the same molecule, the pest or weed control at 15.625 g/ha [10] was 0%, the pest or weed control at 62.5 g/ha [10] was 0% and the pest or weed control at 250 g/ha [10] was 60%. The pest or weed control at 15.625 g/ha [11] was 0%, the pest or weed control at 62.5 g/ha [11] was 0% and the pest or weed control at 250 g/ha [11] was 0%. The plant injury at 15.625 g/ha (corn (Zea mays) [12]) was 0%, the plant injury at 62.5 g/ha (corn (Zea mays) [12]) was 0% and the plant injury at 250 g/ha (corn (Zea mays) [12]) was 0%.

Work on `CN1C[C@@H](c2ccc(C(F)(F)F)cc2)[C@H](C(=O)Nc2ccc(F)cc2C(F)(F)F)C1=O` (racemic) [Compound 1616] yielded a pest or weed control at 15.625 g/ha [1] of 20%, a pest or weed control at 62.5 g/ha [1] of 50% and a pest or weed control at 250 g/ha [1] of 60%. It also gave a pest or weed control at 15.625 g/ha [2] of 40%, a pest or weed control at 62.5 g/ha [2] of 20% and a pest or weed control at 250 g/ha [2] of 80%. The pest or weed control at 15.625 g/ha [3] was 0%, the pest or weed control at 62.5 g/ha [3] was 10% and the pest or weed control at 250 g/ha [3] was 20%. It also gave a pest or weed control at 15.625 g/ha [4] of 10%, a pest or weed control at 62.5 g/ha [4] of 10% and a pest or weed control at 250 g/ha [4] of 60%. The pest or weed control at 15.625 g/ha [5] was 10%, the pest or weed control at 62.5 g/ha [5] was 0% and the pest or weed control at 250 g/ha [5] was 30%. It also gave a plant injury at 15.625 g/ha (corn (Zea mays) [6]) of 0%, a plant injury at 62.5 g/ha (corn (Zea mays) [6]) of 0% and a plant injury at 250 g/ha (corn (Zea mays) [6]) of 0%. For the same molecule, the pest or weed control at 15.625 g/ha [7] was 0%, the pest or weed control at 62.5 g/ha [7] was 20% and the pest or weed control at 250 g/ha [7] was 60%. It also gave a pest or weed control at 15.625 g/ha [8] of 0%, a pest or weed control at 62.5 g/ha [8] of 80% and a pest or weed control at 250 g/ha [8] of 90%. It also gave a pest or weed control at 15.625 g/ha [9] of 0%, a pest or weed control at 62.5 g/ha [9] of 0% and a pest or weed control at 250 g/ha [9] of 20%. It also gave a pest or weed control at 15.625 g/ha [10] of 0%, a pest or weed control at 62.5 g/ha [10] of 0% and a pest or weed control at 250 g/ha [10] of 60%. It also gave a pest or weed control at 15.625 g/ha [11] of 0%, a pest or weed control at 62.5 g/ha [11] of 0% and a pest or weed control at 250 g/ha [11] of 50%. The plant injury at 15.625 g/ha (corn (Zea mays) [12]) was 0%, the plant injury at 62.5 g/ha (corn (Zea mays) [12]) was 0% and the plant injury at 250 g/ha (corn (Zea mays) [12]) was 0%.
